Values of other authors in patent US20140141090A1, “Pharmaceutical Composition Comprising Opioid Agonist And Sequestered Antagonist” (priority 2011, published 2014).
Where a name gives a salt, the structure may show the parent alone. Read-outs that look alike come from different tables or passages of the source.

Tests used:
[1] = not given; remark: listed apart in the source
[2] = after oral administration
[3] = not given; remark: listed apart in the source
[4] = in comparison to a 15 mg dose of hydrocodone

O=C1CC[C@@]2(O)[C@H]3Cc4ccc(O)c5c4[C@@]2(CCN3CC2CC2)[C@H]1O5 [hydrochloride salt of naltrexone, naltrexone hydrochloride]
Solubility in water: up to 100 mg/cc

CCC(=O)C(CC(C)N(C)C)(c1ccccc1)c1ccccc1 (stereo not drawn) [methadone]
Equianalgesic dose [1, 4]: 9.0 mg

COc1ccc2c3c1O[C@H]1[C@@H](O)C=C[C@H]4[C@@H](C2)N(C)CC[C@@]341 [codeine]
Equianalgesic dose [1, 4]: 90.0 mg

COc1ccc2c3c1O[C@H]1C(=O)CC[C@H]4[C@@H](C2)N(C)CC[C@]314 [hydrocodone]
Equianalgesic dose [1, 4]: 15.0 mg

COc1ccc2c3c1OC1C(=O)CC[C@@]4(O)[C@@H](C2)N(C)CC[C@]314 (stereo partly drawn) [oxycodone, 4,5-epoxy-14-hydroxy-3-methoxy-17-methylmorphinan-6-one]
Equianalgesic dose [1, 4]: 13.5 mg

CCOC(=O)C1(c2ccccc2)CCN(C)CC1 [meperidine]
Equianalgesic dose ([1]; in vivo): 135.0 mg

O=C1CC[C@@]2(O)[C@H]3Cc4ccc(O)c5c4[C@@]2(CCN3CC2CC2)[C@H]1O5 [naltrexone]
Duration of action [2]: ~24 h
Oral bioavailability [3]: 5-40%
Time of absorption following oral administration [3]: ≤ 1 h

CN1CC[C@]23c4c5ccc(O)c4O[C@H]2[C@@H](O)C=C[C@H]3[C@H]1C5 [morphine]
Equianalgesic dose ([1]; in vivo): 27.0 mg

CN1CC[C@]23CCCC[C@H]2[C@H]1Cc1ccc(O)cc13 [levorphanol]
Equianalgesic dose [1, 4]: 1.8 mg

C[C@H]1[C@H]2Cc3ccc(O)cc3[C@]1(C)CCN2CC1CC1 [cyclazocine]
Duration of action [2]: ~24 h
